Measurements from patent US11981686B2, “Urea compound having substituent” (DAIICHI SANKYO COMPANY, LIMITED, priority 2019, dated 2024).

Target: SIRT6 enzyme (Homo sapiens, UniProt Q8N6T7)
Assay: Measurement of deacetylation activity (SIRT6, AlphaLISA, H3K9(Ac) peptide)
Assay type: biochemical
Conditions: SIRT6 25 ng/mL, H3K9(Ac) biotin peptide 2 nM, NAD 10 μM, room temperature 30 minutes, duplicate
Summary of the method: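 Activation read as EC150, the concentration giving 150% activity relative to enzyme/no-enzyme DMSO controls, via variable-slope fit. Deacetylation of 2 nM biotinylated H3K9(Ac) peptide with 10 μM NAD+ by 25 ng/mL SIRT6 ran 30 min at room temperature, pH 8.0, then AlphaLISA detection of unmodified H3K9.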

SIRT6 enzyme, sequence (Q8N6T7 whole entry, species assumed): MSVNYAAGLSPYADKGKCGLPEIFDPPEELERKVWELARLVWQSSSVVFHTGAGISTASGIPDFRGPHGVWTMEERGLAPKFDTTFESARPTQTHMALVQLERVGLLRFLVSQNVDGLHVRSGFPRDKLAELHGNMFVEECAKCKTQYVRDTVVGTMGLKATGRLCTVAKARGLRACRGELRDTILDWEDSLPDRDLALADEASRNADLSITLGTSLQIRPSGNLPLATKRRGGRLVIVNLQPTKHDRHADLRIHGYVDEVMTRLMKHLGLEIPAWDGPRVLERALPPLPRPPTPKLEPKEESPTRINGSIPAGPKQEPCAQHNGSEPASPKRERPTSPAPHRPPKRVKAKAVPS

Going from O=C(Nc1nc2c(s1)[C@@H]1COC[C@H](C2)N1c1ncc(-c2cccc(OC(F)F)n2)o1)N[C@H]1CC[C@H](O)CC1 [Example 176, N-[(4S,8S)-10-{5-[6-(difluoromethoxy)pyridin-2-yl]-1,3-oxazol-2-yl}-4,7,8,9-tetrahydro-5H-4,8-epiminooxocino[5,4-d][1,3]thiazol-2-yl]-N′-[(1r,4r)-4-hydroxycyclohexyl]urea] to O=C(Nc1nc2c(s1)[C@@H]1COC[C@H](C2)N1c1cc(-c2ccc(F)cc2)on1)N[C@H]1CC[C@@H](O)CC1 [Example 61, N-{(4S,8S)-10-[5-(4-fluorophenyl)-1,2-oxazol-3-yl]-4,7,8,9-tetrahydro-5H-4,8-epiminooxocino[5,4-d][1,3]thiazol-2-yl}-N′-[(1s,4s)-4-hydroxycyclohexyl]urea], the “EC150 (the concentration of the compound showing a relative enzyme activity of 150%)” value rises from 0.33 μm to 1.9 μm.

CC(C)(O)CNC(=O)Nc1nc2c(s1)CN(c1nc(C34CC(C(F)F)(C3)C4)no1)CC2 [Example 96, N-(5-{3-[3-(difluoromethyl)bicyclo[1.1.1]pentan-1-yl]-1,2,4-oxadiazol-5-yl}-4,5,6,7-tetrahydro[1,3]thiazolo[5,4-c]pyridin-2-yl)-N′-(2-hydroxy-2-methylpropyl)urea] and COC(=O)N1C[C@H]2Cc3nc(NC(=O)NCC(C)(C)O)sc3[C@@H](C1)N2c1nc(C2(C(F)(F)F)CC2)no1 (relative stereo) [Example 33, Methyl (4R*,8R*)-2-{[(2-hydroxy-2-methylpropyl)carbamoyl]amino}-10-{3-[1-(trifluoromethyl)cyclopropyl]-1,2,4-oxadiazol-5-yl}-4,7,8,9-tetrahydro-4,8-epimino[1,3]thiazolo[5,4-d]azocine-6(5H)-carboxylate] are the same in “EC150 (the concentration of the compound showing a relative enzyme activity of 150%)” value: 1.6 μm for the first, 1.6 μm for the second.

Going from O=C(NC[C@H]1COCCO1)Nc1nc2c(s1)[C@@H]1COC[C@H](C2)N1c1nc(-c2ccc(F)cc2)no1 [Example 29, N-{[(2S)-1,4-dioxan-2-yl]methyl}-N′-{(4S,8S)-10-[3-(4-fluorophenyl)-1,2,4-oxadiazol-5-yl]-4,7,8,9-tetrahydro-5H-4,8-epiminooxocino[5,4-d][1,3]thiazol-2-yl}urea] to C[C@H](CO)NC(=O)Nc1nc2c(s1)C1COCC(C2)N1c1nc(-c2ccc(F)cc2)no1 (stereo partly drawn) [Example 18, N-{10-[3-(4-fluorophenyl)-1,2,4-oxadiazol-5-yl]-4,7,8,9-tetrahydro-5H-4,8-epiminooxocino[5,4-d][1,3]thiazol-2-yl}-N′-[(2R)-1-hydroxypropan-2-yl]urea], the “EC150 (the concentration of the compound showing a relative enzyme activity of 150%)” value rises from 0.69 μm to 0.95 μm.

First: CNC(=O)Nc1nc2c(s1)C1COCC(C2)N1c1nc(-c2cccc(C(=O)C3CC3)c2)no1 (stereo not drawn) [Example 112, N-(10-{3-[3-(cyclopropanecarbonyl)phenyl]-1,2,4-oxadiazol-5-yl}-4,7,8,9-tetrahydro-5H-4,8-epiminooxocino[5,4-d][1,3]thiazol-2-yl)-N′-methylurea]
Second: CCc1cccc(-c2nnc(N3[C@@H]4COC[C@H]3c3sc(NC(=O)NC)nc3C4)o2)c1 [Example 118, N-{(4S,8S)-10-[5-(3-ethylphenyl)-1,3,4-oxadiazol-2-yl]-4,7,8,9-tetrahydro-5H-4,8-epiminooxocino[5,4-d][1,3]thiazol-2-yl}-N′-methylurea]
The “EC150 (the concentration of the compound showing a relative enzyme activity of 150%)” value of the first is lower: 1.4 μm for the first, 1.8 μm for the second.

With COc1nc(-c2cnc(N3[C@@H]4COC[C@H]3c3sc(NC(=O)N[C@H](C)CO)nc3C4)o2)ccc1C [Example 193, N-[(2R)-1-hydroxypropan-2-yl]-N′-{(4S,8S)-10-[5-(6-methoxy-5-methylpyridin-2-yl)-1,3-oxazol-2-yl]-4,7,8,9-tetrahydro-5H-4,8-epiminooxocino[5,4-d][1,3]thiazol-2-yl}urea] the “EC150 (the concentration of the compound showing a relative enzyme activity of 150%)” value was 1.8 μm.
